Test [1] concerns the target T1, P2Y6R (Homo sapiens, UniProt Q15077). The test is described as follows: Fluorescence microscopy of P2Y6R-expressing 1321N1 astrocytoma cells. The test is classed as cell-based. The conditions noted are these: 1 μM, 30 min at 37 °C, in presence and absence of 118 (10 μM).
Test [2] deals with T1, P2Y6R. The test is described as follows: Fluorescent ligand binding of 28 by flow cytometry. The settings on record: 100 nM for 30 min at 37 °C in the presence of 125 (100 μM). (In general: In flow cytometry, cells or beads pass a laser one at a time.)

The record followed here is paper PMC4018175 (Journal of Medicinal Chemistry, 2014).

Counter-ions that a name gives are not always drawn.

T1 sequence (Q15077 whole entry): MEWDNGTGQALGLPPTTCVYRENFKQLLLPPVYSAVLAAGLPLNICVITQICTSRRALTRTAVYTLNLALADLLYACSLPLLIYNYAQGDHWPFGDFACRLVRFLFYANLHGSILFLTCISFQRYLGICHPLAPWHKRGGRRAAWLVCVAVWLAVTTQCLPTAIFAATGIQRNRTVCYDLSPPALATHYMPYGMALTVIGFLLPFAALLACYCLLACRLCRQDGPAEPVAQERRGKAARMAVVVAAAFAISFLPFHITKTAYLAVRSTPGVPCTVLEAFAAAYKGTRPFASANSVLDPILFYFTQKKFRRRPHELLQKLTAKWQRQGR

On to `O=C(CCCCCNC(=O)COc1ccc(/C=C/c2ccc3n2[B-](F)(F)[N+]2=C(c4cccs4)C=CC2=C3)cc1)NCCCn1cc(CCNC(=O)COc2ccc(CCCO/N=c3/ccn([C@@H]4O[C@H](COP(=O)(O)OP(=O)(O)OP(=O)(O)O)[C@@H](O)[C@H]4O)c(=O)[nH]3)cc2)nn1` [Compound 28, N^4-(3-((4-O-CH2CONH-(CH2)2(BODIPY-1H-1,2,3-Triazol-4-yl))phenyl)propyloxy)cytidine-5′-triphosphate Triethylammonium Salt], for which the “Labeling of cells expressing the receptor (fluorescence microscopy)” value in test [1] is recorded as “specifically labeled cells expressing the receptor”. Moreover, in test [2], the “Cell labeling by fluorescent ligand (FCM)” value is on record as “significant cell labeling”.
